Test results as given in paper PMC3433414, “Oral Administration of the Pimelic Diphenylamide HDAC Inhibitor HDACi 4b Is Unsuitable for Chronic Inhibition of HDAC Activity in the CNS In Vivo” (PLoS ONE, 2012).
Like-named read-outs stand apart in the source and are kept apart here.

Experiments:
catalytic domain HDAC4 = target: T1, catalytic domain HDAC4 (Homo sapiens, UniProt P56524); experiment: Two-step fluorogenic deacetylase assay, recombinant HDAC4; format: biochemical; conditions: up to 50 µM
T1 construct: catalytic domain HDAC4(αα 648–1057); purchased Emerald Biosciences (Seattle, WA)
Excerpt: (§1) To assess the biochemical and cellular potency of 4b and its conversion products/metabolites, we utilized the two-step fluorogenic assay which measures the HDAC-mediated catalytic conversion of synthetic acetylated lysine substrates. In brief, on deacetylation of the substrates by HDAC activity, a protease site is unmasked which allows subsequent trypsin-mediated cleavage and release of the highly flourescent AMC molecules in a subsequent step of the assay. The substrates used were Lys_Ac_AMC (Bachem I-1875) for HDAC3 and (Ac)Arg-Gly-Lys(Ac) (Bachem I-1925) for HDAC1 and HDAC2. […] However, the relatively labile and sterically more demanding trifluoracetyl group is readily hydrolyzed by the catalytically less avid Class IIa enzymes, allowing measurement of Class IIa activity using the 2-step fluorogenic assay. […]
(§2) For evaluation of the class selectivity of the compounds, we assessed inhibition against purified recombinant human full length HDAC1 (cat# 50051), HDAC2 (cat# 50052), HDAC3-NcoR2 (cat# 50003) and HDAC8 (cat# 50008): as representative of Class I activity; catalytic domain HDAC4(αα 648–1057), HDAC5 (αα 657–1123; cat # 50005), HDAC7 (αα 518-end; cat # 50007) and HDAC9 (αα 604–1066; cat # 50009) activity: representing all Class IIa activity; and full length HDAC6 (cat#50006): representing Class IIb activity. […]

HDAC9 = target: T2, HDAC9 (Homo sapiens, UniProt Q9UKV0); experiment: Two-step fluorogenic deacetylase assay, recombinant HDAC9; format: biochemical; conditions: up to 50 µM
T2 construct: HDAC9 (αα 604–1066; cat # 50009); purchased BPS Bioscience (San Diego, CA) 50009
Excerpt: as §1, §2

[1] = Stability in serum albumin; format: in vitro ADME
Method: Incubations of test compound (5 µM initial concentration, n = 2) were carried out with pooled mouse plasma or BSA (45 mg/mL in 0.1 M phosphate buffered saline). The incubations were performed at 37°C. Samples (50 µL) were obtained from the incubation at 0, 10, 30, 120, 240, 360 and 1440 min, and added to 150 µL of acetonitrile containing carbamazepine as analytical internal standard to terminate the reaction. Samples were centrifuged and the supernatant fractions analysed by LC-MS/MS.

[2] = Hepatic microsomal stability; format: in vitro ADME, mouse; conditions: for predicted in vivo plasma clearance: from mouse microsomal half-life; for half-life at 1 µM: pooled hepatic microsomes, pH 7.4, mouse
Method: Incubations of test compounds (1 µM initial concentration, n = 2) were carried out with pooled hepatic microsomes (0.25 mg protein/mL in 0.1 M phosphate buffer pH 7.4). NADPH (1 mM) was added to initiate the reactions. The incubations were performed at 37°C. Samples (100 µL) were taken from the incubation at 0, 5, 10, 20 and 40 min and added to 100 µL of acetonitrile containing carbamazepine as analytical internal standard, to terminate the reaction. Samples were centrifuged and the supernatant fractions analysed by LC-MS/MS. The instrument responses (i.e. chromatographic peak heights), normalized by internal standard response were referenced to the zero time-point samples (as 100%) in order to determine the percentage of compound remaining.
Ln plots of the % remaining, for each compound, were used to determine the half-life for the microsomal incubations.
Half-life values were calculated from the relationship. [drawing 2] where λ was the slope of the Ln concentration vs time curve.
The in vitro intrinsic clearance, CLint (µL/min/mg microsomal protein), was calculated using the following formula: [drawing 3]
When quantification was required, calibration standards for parent compound and metabolites were prepared in control hepatic microsomes and extracted and analysed as described for the study samples. Quantification of parent compound or metabolite was by extrapolation from the calibration line.

[3] = mouse, 1 µM, with NADPH, read-out: in vitro half-life in hepatic microsomes

T2 sequence (Q9UKV0 604-1066 isoform Q9UKV0-5): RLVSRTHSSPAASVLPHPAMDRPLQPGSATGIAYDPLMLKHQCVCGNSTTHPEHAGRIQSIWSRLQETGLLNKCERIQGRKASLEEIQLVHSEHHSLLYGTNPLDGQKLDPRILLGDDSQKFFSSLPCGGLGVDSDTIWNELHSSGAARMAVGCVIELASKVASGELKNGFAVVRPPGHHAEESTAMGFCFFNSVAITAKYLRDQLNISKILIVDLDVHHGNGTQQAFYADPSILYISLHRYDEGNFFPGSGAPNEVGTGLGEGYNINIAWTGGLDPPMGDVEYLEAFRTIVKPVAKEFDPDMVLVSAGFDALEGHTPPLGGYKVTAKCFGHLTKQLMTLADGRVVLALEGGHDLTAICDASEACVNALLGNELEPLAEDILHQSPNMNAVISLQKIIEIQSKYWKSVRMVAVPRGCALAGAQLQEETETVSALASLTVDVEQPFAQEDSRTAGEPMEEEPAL
T1 sequence (P56524 648-1057): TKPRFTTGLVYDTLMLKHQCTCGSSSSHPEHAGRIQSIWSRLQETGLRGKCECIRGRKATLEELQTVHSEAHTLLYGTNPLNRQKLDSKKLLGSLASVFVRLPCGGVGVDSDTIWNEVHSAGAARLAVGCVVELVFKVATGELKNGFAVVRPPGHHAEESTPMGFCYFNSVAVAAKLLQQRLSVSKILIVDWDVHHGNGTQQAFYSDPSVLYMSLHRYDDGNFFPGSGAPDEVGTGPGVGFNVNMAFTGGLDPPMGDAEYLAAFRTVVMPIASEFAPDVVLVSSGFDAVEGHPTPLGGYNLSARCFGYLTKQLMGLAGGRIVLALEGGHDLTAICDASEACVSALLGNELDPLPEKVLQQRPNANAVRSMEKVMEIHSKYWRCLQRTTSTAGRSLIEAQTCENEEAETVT

| SMILES | activity against HDAC4 (catalytic domain HDAC4) | activity against HDAC9 (HDAC9) | stability in serum albumin incubations [1] | parent remaining ([2]; after 40 min incubation with mouse hepatic microsomes) [%] | predicted in vivo plasma clearance [2] [mL/min/kg] | predicted clearance as share of liver plasma flow ([2]; mouse) | half-life at 1 µM [2, 3] [min] | concentration of C1 in incubations with 4b ([2]; all incubations with 4b, below the limit of quantification) [nM] | half-life at 1 µM ([2]; mouse, without NADPH, read-out: in vitro half-life in liver microsomes) [min] |
| --- | --- | --- | --- | --- | --- | --- | --- | --- | --- |
| Nc1ccccc1NC(=O)CCCCCC(=O)Nc1ccccc1 [Compound 4b] | No activity | No activity | stable | 16 | 43.3 | approximately 87% | ~20 |  |  |
| O=C(CCCCCc1nc2ccccc2[nH]1)Nc1ccccc1 [Compound C1, 6-(1-H-benzo[d]imidazol-2-yl)-N-phenylhexanamide] |  |  |  |  | > 48.2 |  | < 5 | < 100 | 7 |
